Experimental data: patent US20050163737A1, “Deodorant cosmetic composition comprising a combination of zinc pidolate and an antiperspirant aluminum salt” (priority 2003, published 2005)

Key:
[1] = Deodorant efficacy test: odor intensity of incubated underarm sweat, expert panel; set-up: species or system human; conditions: 24 hours at 37° C, vs control sweat
Protocol: Protocol of the Deodorant Efficacy Test
Collections of underarm sweat were taken in a sauna from 6 volunteers; the samples of individual sweat, were stored in ice for a few hours, and were at this point virtually odorless. They were then mixed together and divided into 1 ml aliquots. The active agents were added to these aliquots, which were then incubated in an oven at 37° C. After incubation for 24 hours, a panel of experts evaluated the intensity of the odor in comparison with a control sample: 1 ml of sweat incubated without agent.
The results were expressed as a percentage of variation of the intensity of the odor in comparison with the control sweat sample (mean of the percentages of variation at T24h).

[2] = cited from earlier work

Row | Molecule | % of Reduction in the Intensity of the Odor ([1]; 0.1 mg AM/ml of sweat) [%] | % of Reduction in the Intensity of the Odor ([1]; 0.2 mg AM/ml of sweat (total)) [%] | % of Reduction in the Intensity of the Odor ([1]; 0.3 mg AM/ml of sweat) [%] | % of Reduction in the Intensity of the Odor ([1]; 0.4 mg AM/ml of sweat (total)) [%] | Solubility in water [2]
1 | zinc pidolate [(A)] | −47 | −47 |  |  | 
2 | zinc ricinoleate [(C)] |  |  | −4 |  | 
3 | aluminum chlorohydrate [ACH] | −37 | −47 |  |  | 
4 | Oc1cc(Cl)ccc1Oc1ccc(Cl)cc1Cl [(B), 2,4,4′-trichloro-2′-hydroxydiphenyl ether] |  |  |  | −49 | insoluble
